Test results published in the supplement of paper PMC10307832.

Assays:
Assay in all cases: relative viability (nuclei count vs DMSO), 5 days (fraction); higher = more cells survive
NCI-H1703 = system: NCI-H1703
Outline: (§1)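 Lung cancer cell lines were pin-tool dosed in 1536-well plates on the day after seeding, with either a lone drug or a fixed anchor-drug dose plus five library-drug doses (not always all listed) in √10 steps. Nuclei were counted on 4× images after 5 days. Relative viability is the ratio of treated-well to vehicle-well nuclei counts, with each value a median of duplicate plates.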

NCI-H1734 = system: NCI-H1734
Outline: as §1

LK-2 = system: LK-2
Outline: as §1

NCI-H1299 = system: NCI-H1299
Outline: as §1

NCI-H1648 = system: NCI-H1648
Outline: as §1

UMC-11 = system: UMC-11
Outline: as §1

NCI-H2009 = system: NCI-H2009
Outline: as §1

EBC-1 = system: EBC-1
Outline: as §1

Calu-6 = system: Calu-6
Outline: as §1

NCI-H1650 = system: NCI-H1650
Outline: as §1

IA-LM = system: IA-LM
Outline: as §1

A549 = system: A549
Outline: as §1

CAL-12T = system: CAL-12T
Outline: as §1

A-427 = system: A-427
Outline: as §1

COc1cc2nccc(Oc3ccc(NC(=O)Nc4cc(C)on4)c(Cl)c3)c2cc1OC [Tivozanib] + O=C(c1cc(Cc2n[nH]c(=O)c3ccccc23)ccc1F)N1CCN(C(=O)C2CC2)CC1 [Olaparib] (partner 8 µM)
relative viability (NCI-H1703; first compound 0.005 µM): 0.216
relative viability (NCI-H1703; first compound 0.01581 µM): 0.256
relative viability (NCI-H1703; first compound 0.05 µM): 0.241
relative viability (NCI-H1703; first compound 0.1581 µM): 0.177
relative viability (NCI-H1703; first compound 0.5 µM): 0.146
relative viability (NCI-H1734; first compound 0.005 µM): 0.716
relative viability (NCI-H1734; first compound 0.01581 µM): 0.6
relative viability (NCI-H1734; first compound 0.05 µM): 0.743
relative viability (NCI-H1734; first compound 0.1581 µM): 0.564
relative viability (NCI-H1734; first compound 0.5 µM): 0.609
relative viability (LK-2; first compound 0.005 µM): 0.67
relative viability (LK-2; first compound 0.01581 µM): 0.759
relative viability (LK-2; first compound 0.05 µM): 0.691
relative viability (LK-2; first compound 0.1581 µM): 0.573
relative viability (LK-2; first compound 0.5 µM): 0.613
relative viability (NCI-H1299; first compound 0.005 µM): 0.969
relative viability (NCI-H1299; first compound 0.01581 µM): 1.01
relative viability (NCI-H1299; first compound 0.05 µM): 0.962
relative viability (NCI-H1299; first compound 0.1581 µM): 0.965
relative viability (NCI-H1299; first compound 0.5 µM): 0.844
relative viability (NCI-H1648; first compound 0.005 µM): 1
relative viability (NCI-H1648; first compound 0.01581 µM): 0.736
relative viability (NCI-H1648; first compound 0.05 µM): 0.799
relative viability (NCI-H1648; first compound 0.1581 µM): 1.25
relative viability (NCI-H1648; first compound 0.5 µM): 0.713
relative viability (UMC-11; first compound 0.005 µM): 0.373
relative viability (UMC-11; first compound 0.01581 µM): 0.393
relative viability (UMC-11; first compound 0.05 µM): 0.456
relative viability (UMC-11; first compound 0.1581 µM): 0.33
relative viability (UMC-11; first compound 0.5 µM): 0.415
relative viability (NCI-H2009; first compound 0.005 µM): 0.655
relative viability (NCI-H2009; first compound 0.01581 µM): 0.703
relative viability (NCI-H2009; first compound 0.05 µM): 0.751
relative viability (NCI-H2009; first compound 0.1581 µM): 0.714
relative viability (NCI-H2009; first compound 0.5 µM): 0.542
relative viability (EBC-1; first compound 0.005 µM): 0.642
relative viability (EBC-1; first compound 0.01581 µM): 0.704
relative viability (EBC-1; first compound 0.05 µM): 0.708
relative viability (EBC-1; first compound 0.1581 µM): 0.777
relative viability (EBC-1; first compound 0.5 µM): 0.736
relative viability (Calu-6; first compound 0.005 µM): 0.581
relative viability (Calu-6; first compound 0.01581 µM): 0.618
relative viability (Calu-6; first compound 0.05 µM): 0.522
relative viability (Calu-6; first compound 0.1581 µM): 0.671
relative viability (Calu-6; first compound 0.5 µM): 0.519
relative viability (NCI-H1650; first compound 0.005 µM): 0.714
relative viability (NCI-H1650; first compound 0.01581 µM): 0.94
relative viability (NCI-H1650; first compound 0.05 µM): 0.855
relative viability (NCI-H1650; first compound 0.1581 µM): 0.837
relative viability (NCI-H1650; first compound 0.5 µM): 0.863
relative viability (IA-LM; first compound 0.005 µM): 0.867
relative viability (IA-LM; first compound 0.01581 µM): 0.891
relative viability (IA-LM; first compound 0.05 µM): 0.857
relative viability (IA-LM; first compound 0.1581 µM): 0.697
relative viability (IA-LM; first compound 0.5 µM): 0.672
relative viability (A549; first compound 0.005 µM): 0.349
relative viability (A549; first compound 0.01581 µM): 0.456
relative viability (A549; first compound 0.05 µM): 0.398
relative viability (A549; first compound 0.1581 µM): 0.0913
relative viability (A549; first compound 0.5 µM): 0.246
relative viability (CAL-12T; first compound 0.005 µM): 0.666
relative viability (CAL-12T; first compound 0.01581 µM): 0.654
relative viability (CAL-12T; first compound 0.05 µM): 0.75
relative viability (CAL-12T; first compound 0.1581 µM): 0.812
relative viability (CAL-12T; first compound 0.5 µM): 0.584
relative viability (A-427; first compound 0.005 µM): 0.667
relative viability (A-427; first compound 0.01581 µM): 0.747
relative viability (A-427; first compound 0.05 µM): 0.774
relative viability (A-427; first compound 0.1581 µM): 0.709
relative viability (A-427; first compound 0.5 µM): 0.737
